# Calls of active or inactive are those of the source. The rule behind the calls is not given here.
# Columns and labels:
# [1] = system: Trypanosoma cruzi; assay: Antitrypanosomal activity against Trypanosoma cruzi Tulahuen 2 assessed as inhibition of epimastigotes growth after 5 days by MTT assay relative to control; assay type: functional; details: Tulahuen 2, 120 h, read-out: ID50 (the source's name)
# [2] = system: Trypanosoma cruzi; assay: Antitrypanosomal activity against Trypanosoma cruzi CL Brener assessed as parasite viability after 5 days by MTT assay; assay type: functional; details: 120 h, read-out: ID50 (the source's name)
# [3] = system: Leishmania braziliensis; assay: Antileishmanial activity against Leishmania braziliensis MHOM/BR/00/LTB300 assessed as parasite viability after 5 days by MTT assay; assay type: functional; details: 120 h, read-out: ID50 (the source's name)
# [4] = system: Trypanosoma cruzi; assay: Antitrypanosomal activity against Trypanosoma cruzi Y assessed as parasite viability after 5 days by MTT assay; assay type: functional; details: 120 h, read-out: ID50 (the source's name)
# [5] = system: Leishmania pifanoi; assay: Antileishmanial activity against Leishmania pifanoi MHOM/VE/57/LV135 assessed as parasite viability after 5 days by MTT assay; assay type: functional; details: 120 h, read-out: ID50 (the source's name)
# [6] = system: Trypanosoma cruzi; assay: Antitrypanosomal activity against Trypanosoma cruzi CL Brener assessed as lysis of trypomastigotes at 50 uM after 2 hrs relative to control; assay type: functional
# [7] = system: Trypanosoma cruzi; assay: Antitrypanosomal activity against Trypanosoma cruzi CL Brener assessed as lysis of trypomastigotes at 25 uM after 19 hrs relative to control; assay type: functional
# [8] = system: Trypanosoma cruzi; assay: Inhibition of Trypanosoma cruzi Y mitochondrial dehydrogenase activity by MTT assay relative to control
# [9] = system: Trypanosoma cruzi; assay: Antitrypanosomal activity against Trypanosoma cruzi CL Brener assessed as lysis of trypomastigotes at 25 uM after 2 hrs relative to control; assay type: functional
# [10] = system: Trypanosoma cruzi; assay: Antitrypanosomal activity against Trypanosoma cruzi CL Brener assessed as lysis of trypomastigotes at 50 uM after 19 hrs relative to control; assay type: functional
# [11] = Inhibition of nitric oxide production by Griess assay; assay type: functional; set-up: concentration or dose not given beside the values; details: dose or concentration not given here
# [12] = system: Trypanosoma cruzi; assay: Antitrypanosomal activity against Trypanosoma cruzi Tulahuen 2 assessed as inhibition of growth of epimastigotes at 25 uM after 5 days by MTT assay relative to control; assay type: functional; details: Tulahuen 2, 120 h, read-out: GI
# [13] = system: Trypanosoma cruzi; assay: Antitrypanosomal activity against Trypanosoma cruzi CL Brener in Vero cells assessed as endocytic index at 2.5 uM; assay type: functional
# [14] = system: Trypanosoma cruzi; assay: Antitrypanosomal activity against Trypanosoma cruzi CL Brener in Vero cells assessed as infection; assay type: functional
# [15] = system: Trypanosoma cruzi; assay: Antitrypanosomal activity against Trypanosoma cruzi CL Brener in Vero cells assessed as number of amastigote infected; assay type: functional
# [16] = system: Trypanosoma cruzi; assay: Antitrypanosomal activity against Trypanosoma cruzi CL Brener assessed as lysis of trypomastigotes at 10 uM after 2 hrs relative to control; assay type: functional
# [17] = system: Trypanosoma cruzi; assay: Antitrypanosomal activity against Trypanosoma cruzi CL Brener clone assessed as lysis of trypomastigotes at 10 uM after 3 hrs relative to control; assay type: functional
# [18] = system: Trypanosoma cruzi; assay: Antitrypanosomal activity against Trypanosoma cruzi CL Brener clone assessed as lysis of trypomastigotes at 10 uM after 26 hrs relative to control; assay type: functional
# [19] = system: Leishmania pifanoi; assay: Antileishmanial activity against Leishmania pifanoi MHOM/VE/57/LV135 at 5.0 uM after 5 days assessed as parasite viability by MTT assay; assay type: functional; details: 120 h, read-out: GI
structure (smiles),measurement,setting,value
Cc1ncc([N+](=O)[O-])n1CCOc1no[n+]([O-])c1-c1ccccc1,IC50,[1],4 µM
NC(=O)CS(=O)(=O)c1no[n+]([O-])c1-c1ccccc1,IC50,[2],> 50 µM
same,IC50,[3],> 50 µM
same,IC50,[1],25 µM
same,IC50,[4],48 µM
same,IC50,[5],> 50 µM
C=CS(=O)(=O)c1c(-c2ccccc2)no[n+]1[O-],IC50,[2],2.6 µM
same,Activity,[6],62%
same,Activity,[7],100%
same,IC50,[3],10 µM
same,IC50,[1],6.5 µM
same,Activity,[8],Active
same,Activity,[9],33%
same,IC50,[4],6.8 µM
same,IC50,[5],26.7 µM
same,Activity,[10],100%
CCOCCS(=O)(=O)c1c(-c2ccccc2)no[n+]1[O-],IC50,[2],1.5 µM
same,Activity,[6],68%
same,Activity,[7],100%
same,IC50,[3],4.1 µM
same,IC50,[1],10 µM
same,Activity,[8],Active
same,IC50,[4],3.4 µM
same,IC50,[5],4.2 µM
same,inhibition,[11],10%
same,Activity,[10],100%
NC(=O)CSc1nonc1-c1ccccc1,inhibition of growth at 25 µM,[12],17%
same,IC50,[2],> 50 µM
same,IC50,[3],> 50 µM
same,IC50,[4],> 50 µM
same,IC50,[5],> 50 µM
CCSCCS(=O)(=O)c1nonc1-c1ccccc1,inhibition of growth at 25 µM,[12],25%
same,IC50,[2],> 50 µM
same,IC50,[3],> 50 µM
same,IC50,[4],28.7 µM
same,IC50,[5],> 50 µM
CCSCCS(=O)(=O)c1no[n+]([O-])c1-c1ccccc1,IC50,[2],37.1 µM
same,IC50,[3],> 50 µM
same,IC50,[1],5 µM
same,IC50,[4],6 µM
same,IC50,[5],> 50 µM
same,inhibition,[11],< 1%
CCCCCCNC(=O)N/N=C/c1c(-c2ccccc2)no[n+]1[O-],IC50,[1],25 µM
COc1ccccc1NCCS(=O)(=O)c1c(-c2ccccc2)no[n+]1[O-],IC50,[2],5 µM
same,IC50,[3],13.7 µM
same,IC50,[1],7.5 µM
same,IC50,[4],9.2 µM
same,IC50,[5],6.5 µM
same,inhibition,[11],20.8%
CCOC(=O)COc1no[n+]([O-])c1S(=O)(=O)c1ccccc1,IC50,[1],7.5 µM
Nc1no[n+]([O-])c1-c1ccccc1,IC50,[1],25 µM
CCOc1no[n+]([O-])c1-c1ccccc1,IC50,[1],7.5 µM
O=C(Cn1ccnc1[N+](=O)[O-])NCc1ccccc1 [BENZNIDAZOLE],IC50,[1],4.5 µM
same,IC50,[5],3.8 µM
O=S(=O)(c1ccccc1)c1nonc1-c1ccccc1,IC50,[2],> 50 µM
same,IC50,[3],> 50 µM
same,IC50,[1],10 µM
same,IC50,[4],> 50 µM
same,IC50,[5],> 50 µM
NC(=O)CS(=O)(=O)c1c(-c2ccccc2)no[n+]1[O-],Activity,[13],10.1
same,Activity,[14],6.3%
same,IC50,[2],3.7 µM
same,Activity,[15],1.6
same,Activity,[16],0%
same,Activity,[7],100%
same,IC50,[3],14.3 µM
same,Activity,[17],5%
same,IC50,[1],10 µM
same,Activity,[8],Active
same,Activity,[18],100%
same,IC50,[4],6 µM
same,IC50,[5],> 50 µM
same,Activity,[10],100%
O=S(=O)(c1ccccc1)c1no[n+]([O-])c1-c1ccccc1,IC50,[2],9.1 µM
same,IC50,[3],20.2 µM
same,IC50,[1],7.5 µM
same,IC50,[4],> 50 µM
same,IC50,[5],20.5 µM
same,inhibition,[11],< 1%
Cc1ncc([N+](=O)[O-])n1CCOc1nonc1S(=O)(=O)c1ccccc1,IC50,[1],19 µM
COc1ccccc1NCCS(=O)(=O)c1nonc1-c1ccccc1,IC50,[2],> 50 µM
same,IC50,[3],11.6 µM
same,IC50,[1],10 µM
same,IC50,[4],50 µM
same,IC50,[5],15.8 µM
NC(=O)CSc1no[n+]([O-])c1-c1ccccc1,inhibition of growth at 25 µM,[12],12%
same,IC50,[2],> 50 µM
same,IC50,[3],> 50 µM
same,IC50,[4],> 50 µM
same,IC50,[5],> 50 µM
CCOCCS(=O)(=O)c1nonc1-c1ccccc1,IC50,[2],> 50 µM
same,IC50,[3],> 50 µM
same,IC50,[1],7.5 µM
same,IC50,[4],> 50 µM
same,IC50,[5],> 50 µM
C=CS(=O)(=O)c1no[n+]([O-])c1-c1ccccc1,IC50,[2],8.2 µM
same,IC50,[3],39.1 µM
same,IC50,[1],5.5 µM
same,IC50,[4],11.1 µM
same,IC50,[5],> 50 µM
O=S(=O)(c1ccccc1)c1c(OCCCO)no[n+]1[O-],IC50,[1],7.5 µM
C=CS(=O)(=O)c1nonc1-c1ccccc1,IC50,[2],22.2 µM
same,IC50,[3],8 µM
same,IC50,[1],6.5 µM
same,IC50,[4],23.5 µM
same,IC50,[5],20.4 µM
[O-][n+]1onc(-c2ccccc2)c1Br,IC50,[1],5 µM
CN(C)CCCOc1no[n+]([O-])c1S(=O)(=O)c1ccccc1,IC50,[1],3 µM
CCOc1no[n+]([O-])c1S(=O)(=O)c1ccccc1,IC50,[1],7.5 µM
CCCCCCCCCCCCCCCCOP(=O)([O-])OCC[N+](C)(C)C [MILTEFOSINE],IC50,[3],9 µM
same,inhibition of growth at 5 µM,[19],85.5%
O=S(=O)(CCO)c1no[n+]([O-])c1-c1ccccc1,IC50,[1],25 µM
CCOCCS(=O)(=O)c1no[n+]([O-])c1-c1ccccc1,IC50,[2],> 50 µM
same,IC50,[3],> 50 µM
same,IC50,[1],17 µM
same,IC50,[4],> 50 µM
same,IC50,[5],> 50 µM
same,inhibition,[11],< 1%
NC(=O)CS(=O)(=O)c1nonc1-c1ccccc1,inhibition of growth at 25 µM,[12],27%
same,IC50,[2],> 50 µM
same,IC50,[3],> 50 µM
same,IC50,[4],> 50 µM
same,IC50,[5],> 50 µM
COC(=O)CSc1c(S(=O)(=O)c2ccccc2)no[n+]1[O-],inhibition of growth at 25 µM,[12],22%
O=S(=O)(CCO)c1c(-c2ccccc2)no[n+]1[O-],IC50,[1],7.5 µM
Cc1ncc([N+](=O)[O-])n1CCNCc1nonc1C(N)=O,inhibition of growth at 25 µM,[12],14%
Cc1c(CNC(c2c[nH]cn2)C2CCNCC2)no[n+]1[O-] (configuration not stated),inhibition of growth at 25 µM,[12],0%
